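Tested at 5 concentrations; 48 h exposure; 96-well plates; endpoints linearly interpolated, else capped at highest concentration. Abbreviation: GI50, concentration required for 50% inhibition of growth.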 Calls of active or inactive are those of the source. No stated cut-off is given here; in the data, active = GI50 up to about 1.1 µM and inactive = higher.
Key:
Assay in all cases: DTP human tumour cell line panel, 48 h
DMS-114 = tested on: DMS-114
M19-MEL = tested on: M19-MEL
XF498 = tested on: XF498
DLD-1 = tested on: DLD-1
SNB-78 = tested on: SNB-78
HOP-18 = tested on: HOP-18
KM-20L2 = tested on: KM-20L2
LXFL 529 = tested on: LXFL 529
RXF 631 = tested on: RXF 631

SMILES	GI50 (DMS-114)	GI50 (M19-MEL)	GI50 (XF498)	GI50 (DLD-1)	GI50 (SNB-78)	GI50 (HOP-18)	GI50 (KM-20L2)	GI50 (LXFL 529)	GI50 (RXF 631)
CC#CC1/C(=C\C(=O)OC)CCCC1O (configuration not stated)	> 100 µM (inactive)	> 100 µM (inactive)	> 100 µM (inactive)	> 100 µM (inactive)	> 100 µM (inactive)	–	–	–	–
Cc1cc(=O)oc2c1cc(OCC(=O)OCCN1CCCCC1)c1occ(C)c12	> 100 µM (inactive)	> 100 µM (inactive)	> 100 µM (inactive)	> 100 µM (inactive)	> 100 µM (inactive)	> 100 µM (inactive)	> 100 µM (inactive)	> 100 µM (inactive)	–
O=c1/c(=C/c2ccco2)sc2nc3ccccc3n12	> 10 µM (inactive)	> 10 µM (inactive)	> 10 µM (inactive)	> 10 µM (inactive)	> 10 µM (inactive)	> 100 µM (inactive)	> 10 µM (inactive)	> 10 µM (inactive)	> 10 µM (inactive)
c1ccc([S+](c2ccccc2)c2ccc(Sc3ccc([S+](c4ccccc4)c4ccccc4)cc3)cc2)cc1	3.2 µM (inactive)	18.1 µM (inactive)	11.4 µM (inactive)	29.2 µM (inactive)	27.9 µM (inactive)	30.5 µM (inactive)	16.8 µM (inactive)	18 µM (inactive)	58.2 µM (inactive)
CC1(C)CCC(=O)c2c(O)ccc(O)c21	–	> 100 µM (inactive)	–	–	> 100 µM (inactive)	–	83.4 µM (inactive)	42.8 µM (inactive)	–
CC(NS(=O)(=O)c1ccc(Cl)cc1)C(=O)O (configuration not stated)	–	> 100 µM (inactive)	66.7 µM (inactive)	> 100 µM (inactive)	–	> 100 µM (inactive)	> 100 µM (inactive)	> 100 µM (inactive)	–
O=C(NC(=O)c1ccccc1[N+](=O)[O-])Nc1ccc(Oc2ncc(Cl)cn2)c([N+](=O)[O-])c1	0.0865 µM (active)	0.135 µM (active)	0.818 µM (active)	0.217 µM (active)	0.252 µM (active)	> 100 µM (inactive)	0.121 µM (active)	0.217 µM (active)	0.286 µM (active)
N#CC1CCCCC1NC1(C#N)CCCCC1 (configuration not stated)	> 100 µM (inactive)	–	> 100 µM (inactive)	> 100 µM (inactive)	> 100 µM (inactive)	–	> 100 µM (inactive)	> 100 µM (inactive)	–
C=C1CC2C(=O)N(c3ccccc3)C(=O)C2CC1n1[nH]c(=O)n(Cc2ccccc2)c1=O (configuration not stated)	–	> 100 µM (inactive)	> 100 µM (inactive)	> 100 µM (inactive)	> 100 µM (inactive)	> 100 µM (inactive)	> 100 µM (inactive)	> 100 µM (inactive)	–
COC(=O)C(C(=O)C(=O)Nc1ccccc1C)c1nc2ccc([N+](=O)[O-])cc2nc1O (configuration not stated)	> 100 µM (inactive)	> 100 µM (inactive)	> 100 µM (inactive)	> 100 µM (inactive)	> 100 µM (inactive)	> 100 µM (inactive)	> 100 µM (inactive)	> 100 µM (inactive)	–
CSc1ccc2c(cc1=O)[C@@H](NC(=O)c1cc(O)c(O)c(O)c1)CCc1cc(O)c(O)c(O)c1-2	–	14.6 µM (inactive)	15.4 µM (inactive)	21.2 µM (inactive)	31 µM (inactive)	–	68.7 µM (inactive)	18.9 µM (inactive)	15.5 µM (inactive)
N/N=C(\c1nc2ccc(Cl)cc2nc1O)C(O)c1ccc(Cl)c(Cl)c1 (configuration not stated)	> 100 µM (inactive)	> 100 µM (inactive)	> 100 µM (inactive)	46.7 µM (inactive)	> 100 µM (inactive)	–	> 100 µM (inactive)	> 100 µM (inactive)	> 100 µM (inactive)
O=C(O)C12C3C4C1C1C2C3C41I (configuration not stated)	> 100 µM (inactive)	> 100 µM (inactive)	> 100 µM (inactive)	> 100 µM (inactive)	> 100 µM (inactive)	–	> 100 µM (inactive)	> 100 µM (inactive)	> 100 µM (inactive)
COC(=O)CC[C@@H](NC(=O)C(C)NC(=O)COC1C(O)C(COC(=O)CCCCCCCCCCNC(=O)c2ccc([N+](=O)[O-])c3[nH]c4cc(Br)ccc4c(=O)c23)OC(OCc2ccccc2)C1NC(C)=O)C(N)=O (some centres not stated)	35.6 µM (inactive)	50.8 µM (inactive)	> 100 µM (inactive)	35.4 µM (inactive)	71.8 µM (inactive)	35.7 µM (inactive)	> 100 µM (inactive)	26.2 µM (inactive)	–
O=c1[nH]c2ccccc2nc1CBr	–	10.2 µM (inactive)	1.9 µM (inactive)	8.87 µM (inactive)	16.1 µM (inactive)	6.93 µM (inactive)	14.1 µM (inactive)	1.12 µM (active)	–
O=S(=O)(N/N=C\c1c2ccccc2[n+]([O-])c2ccccc12)c1ccc(Cl)cc1	> 100 µM (inactive)	> 100 µM (inactive)	–	> 100 µM (inactive)	> 100 µM (inactive)	32.4 µM (inactive)	> 100 µM (inactive)	> 100 µM (inactive)	> 100 µM (inactive)
CCOC(=O)C(C)(C)Oc1ccc2c(C)c(-c3ccc(Cl)cc3)c(=O)oc2c1	20.4 µM (inactive)	54.2 µM (inactive)	20.3 µM (inactive)	47.6 µM (inactive)	–	–	33.2 µM (inactive)	34.1 µM (inactive)	32.6 µM (inactive)
C/C=C1\CN2CCc3c([nH]c4ccccc34)C2CC1C(=O)OC (configuration not stated)	–	–	> 322 µM (inactive)	> 322 µM (inactive)	–	–	> 322 µM (inactive)	> 322 µM (inactive)	–
O=C1C(Cl)=C(Cl)C(=O)N1c1ccc(Cl)c(Cl)c1Cl	32.7 µM (inactive)	88.3 µM (inactive)	–	34.9 µM (inactive)	> 100 µM (inactive)	> 100 µM (inactive)	> 100 µM (inactive)	28.1 µM (inactive)	> 100 µM (inactive)
Cc1cc(C)c2c(c1C)CN1CN2Cc2c(C)c(C)cc(C)c21	2.92 µM (inactive)	30.5 µM (inactive)	–	20.8 µM (inactive)	42.6 µM (inactive)	83.6 µM (inactive)	–	8.15 µM (inactive)	–
CCCCCCc1cc2c(C)c(C)c(=O)oc2cc1OCCCOc1cc2oc(=O)c(C)c(C)c2cc1CCCCCC	> 100 µM (inactive)	> 100 µM (inactive)	> 100 µM (inactive)	> 100 µM (inactive)	> 100 µM (inactive)	> 100 µM (inactive)	> 100 µM (inactive)	> 100 µM (inactive)	–
Cc1[nH]c(=O)[nH]c(=O)c1N(CCF)CCCl [FLUORODOPAN]	193 µM (inactive)	–	–	384 µM (inactive)	322 µM (inactive)	–	359 µM (inactive)	–	–
Cc1ccc2nc3c(C(=O)NCCN(C)C)cccc3nc2c1	2.74 µM (inactive)	2.44 µM (inactive)	–	–	7.31 µM (inactive)	> 27.1 µM (inactive)	3.53 µM (inactive)	7.38 µM (inactive)	–
CC1(C)OC(C[C@]2(C#N)C[C@H](CCl)OC(C)(C)O2)C[C@@H](C[C@]2(C#N)C[C@H](CCl)OC(C)(C)O2)O1 (some centres not stated)	–	> 100 µM (inactive)	> 100 µM (inactive)	> 100 µM (inactive)	> 100 µM (inactive)	> 100 µM (inactive)	> 100 µM (inactive)	> 100 µM (inactive)	–
